Laboratory results reported in patent US8952033B2, “4-anilinofuro[2,3-b]quinoline derivatives, their preparation processes, and pharmaceutical compositions comprising the same” (Kaohsiung Medical University, priority 2011, dated 2015).
Values after ≈ are worked out from the molar mass of the structure shown. Read-outs that look alike come from different tables or passages of the source. Marks after values point to notes of the source that are not given here.

What was measured:
[1] = system: MRC-5 (human lung fibroblast cell); assay: GI50 determination on normal cell line MRC-5; format: cell-based
Procedure: (§1) Antiproliferative activities of the compounds of this invention were evaluated substantially according to the method as described in Tseng, C. […] The cells were treated with the test compounds, i.e., the compounds of this invention (in dimethylsulfoxide (DMSO)), or DMSO for 48 hours.
(§2) Before and after the treatment with the test compounds or DMSO, 3-(4,5-dimethylthiazol-2-yl)-2,5-diphenyltetrazolium bromide (MTT, 2 mg/mL, 100 μL) was added to each of the cultures, followed by cultivation for 2 hours. The resultant formazan was dissolved by the addition of DMSO. Absorbance at 570 nm (OD570) was measured using a microtiter plate reader (Dynex MRX-II).
(§3) Determination of GI50 was conducted thrice for each test compound. GI50 is expressed as mean±SD.

[2] = system: SF-268 (central nervous system carcinoma cell); assay: MTT antiproliferative assay (cell growth %, GI50), SF-268; format: cell-based; parameters: Cell growth (%) SF-268: unit of the concentration uncertain; conditions: for SI SF-268: GI50 MRC-5 / GI50 SF-268; for GI50: Homo sapiens; for Cell growth (%) SF-268: 48 hours, MTT
Procedure: as §1, §2, §3

[3] = system: MCF-7 (breast cancer cell); assay: MTT antiproliferative assay (cell growth %, GI50), MCF-7; format: cell-based; parameters: Cell growth (%) MCF-7: unit of the concentration uncertain; conditions: for SI MCF-7: GI50 MRC-5 / GI50 MCF-7; for activity at 4000 µg/mL / activity at 20000 µg/mL / GI50: Homo sapiens; for activity at 4000 µg/mL: 4 mg/ml; for activity at 4000 µg/mL / activity at 20000 µg/mL / Cell growth (%) MCF-7: 48 hours, MTT; for activity at 20000 µg/mL: 20 mg/ml
Procedure: as §1, §2, §3

[4] = system: NCI-H460 (non-small cell lung carcinoma cell); assay: MTT antiproliferative assay (cell growth %, GI50), NCI-H460; format: cell-based; parameters: Cell growth (%) NCI-H460: unit of the concentration uncertain; conditions: for SI NCI-H460: GI50 MRC-5 / GI50 NCI-H460; for activity at 4000 µg/mL / activity at 20000 µg/mL / GI50: Homo sapiens; for activity at 4000 µg/mL: 4 mg/ml; for activity at 4000 µg/mL / activity at 20000 µg/mL / Cell growth (%) NCI-H460: 48 hours, MTT; for activity at 20000 µg/mL: 20 mg/ml
Procedure: as §1, §2, §3

[5] = Determination of solubility in water; format: physicochemical; conditions: for Solubility in water: 25±0.1° C., stirred overnight, UV-VIS
Procedure: Determination of solubility in water was conducted substantially according to the method as described in Vougogiannopoulou, K. et al. (2008), J. Med. Chem., 51:6421-6431. An excess amount of the respective test compound was added into water, followed by sonication for 5 minutes. The resultant mixture was stirred at ambient temperature (25±0.1° C.) overnight. Centrifugation at 4000 rpm and 25° C. was conducted for 5 minutes. Absorbance of the sample of the respective test compound was measured at 315-420 nm using a UV-VIS spectrophotometer (JASCO UV-Visible V570). For each test compound, a standard curve was generated by plotting concentrations of standard solutions and the corresponding absorbances. The absorbance of the sample of each test compound was then converted to solubility in water (μg/mL) using the corresponding standard curve.

[6] = Single-dose pharmacokinetic analysis in CD-1 mice; format: in vivo
Procedure: CD-1 mice were divided into two groups. The first group of mice (n=9) were used to assess the singe-dose pharmacokinetics of the test compounds after intravenous administration, and the second group of mice (n=9) were utilized to assess the singe-dose pharmacokinetics of the test compounds after oral administration. All of the mice were fasted from 4 hours before the administration of the test compounds until 4 hours after the administration of the test compounds.
The assessment for singe-dose pharmacokinetics of the test compounds after intravenous administration was performed as follows. The first group of mice were further randomly divided into three subgroups including compound 13a group (n=3), compound 14a group (n=3), and compound 1 group (n=3). Compounds 13a, 14a, 1 (in polyethylene glycol 400/ethanol/water (30/5/65, v/v/v)) were respectively administered to the mice in compound 13a group, compound 14a group, and compound 1 group at a dose of 2 mg/kg via tail vein injection. Blood samples (0.25 mL) were collected from the mice by virtue of cardiac puncture right before the intravenous administration, and at 2 min, 5 min, 15 min, 30 min, 1 hr, 1.5 hr, 2 hr, 4 hr, 6 hr, 9 hr, 24 hr, and 27 hr after the intravenous administration.
The assessment for singe-dose pharmacokinetics of the test compounds after oral administration was conducted as follows. The second group of mice were further randomly divided into three subgroups including compound 13a group (n=3), compound 14a group (n=3), and compound 1 group (n=3). Compounds 13a, 14a, 1 (in 0.5% methylcellulose) were respectively administered to the mice in compound 13a group, compound 14a group, and compound 1 group at a dose of 20 mg/kg via tube feeding. Blood samples (0.25 mL) were collected from the mice by virtue of cardiac puncture right before the oral administration, and at 15 min, 30 min, 1 hr, 1.5 hr, 2 hr, 4 hr, 6 hr, 9 hr, 24 hr, and 27 hr after the oral administration.
Each of the blood samples was placed in a 0.5 mL Microtainer® tube containing anticoagulant EDTA-K2, followed by mixing evenly. Centrifugation at 7000 g and 4° C. was conducted for 5 minutes. Plasma was collected and was mixed uniformly with a proper amount of acetonitrile, followed by centrifugation. The resultant supernatant was acquired, and was injected into a reversed-phase Biosil ODS column so as to determine the concentration of the respective test compound in plasma (i.e., the plasma concentration of the respective test compound) using a LC-MS/MS system (Waters 2795 LC and Micromass Quattro Ultima). The singe-dose pharmacokinetic parameters of the respective test compound were calculated from the obtained concentration of the respective test compound in plasma (i.e., the obtained plasma concentration of the respective compound) at different time points using WinNonlin Standard Program (version 3.1, Pharsight Corp.)

[7] = MRC5, normal cell line, mean±SD, read-out: GI50 MRC-5
[8] = SF-268, mean±SD, read-out: GI50 SF-268
[9] = MCF7, mean±SD, read-out: GI50 MCF-7
[10] = NCI-H460, mean±SD, read-out: GI50 NCI-H460
[11] = intravenous administration, 2 mg/kg

Compound | GI50 [1, 7] | SI SF-268 [2] | GI50 [2, 8] | SI MCF-7 [3] | activity at 4000 µg/mL ([3]; MCF7) | activity at 20000 µg/mL ([3]; MCF7) | GI50 [3, 9] | SI NCI-H460 [4] | activity at 4000 µg/mL ([4]; NCI-H460) | activity at 20000 µg/mL ([4]; NCI-H460) | GI50 [4, 10] | Solubility in water [5] | also measured
C/C(=N\OCCCN)c1ccc(Nc2c3ccccc3nc3occ(Cl)c23)cc1 [Compound 14c, (E)-1-(4-(3-Chlorofuro[2,3-b]quinolin-4-ylamino)phenyl)ethanone O-3-aminopropyl oxime] | 47.1 ± 2.27 µM | 1.46 | 32.5 ± 1.25 µM | 4.98 | 46% | 0% | 9.46 ± 0.23 µM | 2.90 | 28% | 0% | 16.2 ± 0.36 µM | 36 µg/mL (≈ 88 µM) | –
CC[C@@]1(O)C(=O)OCc2c1cc1n(c2=O)Cc2cc3ccccc3nc2-1 [camptothecin, reference compound] | 0.89 ± 0.9 µM | 4.68 | 0.19 ± 0.006 µM | 0.08 | – | – | 11.1 ± 0.61 µM | 29.67 | – | – | 0.03 ± 0.003 µM | – | –
COc1ccc2c(Nc3ccc(/C(C)=N/OCCN)cc3)c3c(Cl)coc3nc2c1 [Compound 16a, (E)-1-(4-(3-Chloro-7-methoxyfuro[2,3-b]quinolin-4-ylamino)phenyl)ethanone O-2-aminoethyl oxime] | 47.46 ± 0.38 µM | 6.34 | 7.48 ± 0.366 µM | 1.28 | 66% | -1% | 36.93 ± 0.31 µM | 12.30 | 13% | 3% | 3.86 ± 0.13 µM | 17 µg/mL (≈ 40 µM) | –
C/C(=N\OCCN)c1ccc(Nc2c3ccccc3nc3occ(Cl)c23)cc1 [Compound 14a, (E)-1-(4-(3-Chlorofuro[2,3-b]quinolin-4-ylamino)phenyl)ethanone O-2-aminoethyl oxime] | 47 ± 1.21 µM | 5.15 | 9.14 ± 0.72 µM | 1.52 | 59% | -1% | 31.01 ± 0.03 µM | 66.25 | 32% | -1% | 0.71 ± 0.02 µM | 25 µg/mL (≈ 63.3 µM) | AUC(0-inf) [6, 11]: 409.8 ng·h/mL; CL [6, 11]: 81.3 mL/min/kg; MRT [6, 11]: 6.1 h; Vss [6, 11]: 30.0 L/kg; Vz [6, 11]: 103.8 L/kg; Cmax ([6]; intravenous administration, 2 mg/kg, extrapolated plasma concentration at 0 hr): 3601 ng/mL; t1/2 ([6]; intravenous administration, 2 mg/kg, from 0.5-1.5 hr (compd. 1) or 9-27 hr (13a, 14a)): 14.7^d hr; Bioavailability ([6]; oral 20 mg/kg versus intravenous 2 mg/kg): 5.9%; AUC(0-inf) ([6]; oral administration, 20 mg/kg): 242.6 ng·h/mL; Cmax ([6]; oral administration, 20 mg/kg): 114.3 ng/mL; MRT ([6]; oral administration, 20 mg/kg): 2.8 h; Time after which compound was unable to be detected in plasma ([6]; oral administration, 20 mg/kg): 9 h; Tmax ([6]; oral administration, 20 mg/kg): 1.0 h; t1/2 ([6]; oral administration, 20 mg/kg, from 2-6 hr (compd. 1), 2-24 hr (13a), 2-9 hr (14a)): 1.7^f hr
C/C(=N\OCCN)c1ccc(Nc2c3ccccc3nc3occc23)cc1.Cl [Hydrochloride salt of 13a, hydrochloride salt of (E)-1-(4-(furo[2,3-b]quinolin-4-ylamino)phenyl)ethanone O-2-aminoethyl oxime] | – | – | – | – | – | – | – | – | – | – | – | 1049 µg/mL | Solubility in water relative to compound 13a ([5]; fold versus compound 13a): about 17 times
COc1ccc2c(Nc3ccc(/C(C)=N/OCCN(C)C)cc3)c3c(Cl)coc3nc2c1 [Compound 16b, (E)-1-(4-(3-Chloro-7-methoxyfuro[2,3-b]quinolin-4-ylamino)phenyl)ethanone O-2-(dimethylamino) ethyl oxime] | – | – | – | – | – | – | – | – | – | – | – | – | Cell growth (%) SF-268 ([2]; 4 (unit uncertain)): 102%; Cell growth (%) SF-268 ([2]; 20 (unit uncertain)): −1%; Cell growth (%) MCF-7 ([3]; 4 (unit uncertain)): 51%; Cell growth (%) MCF-7 ([3]; 20 (unit uncertain)): −2%; Cell growth (%) NCI-H460 ([4]; 4 (unit uncertain)): 74%; Cell growth (%) NCI-H460 ([4]; 20 (unit uncertain)): −1%
COc1ccc2c(Nc3ccc(/C(C)=N/OCCCN(C)C)cc3)c3c(Cl)coc3nc2c1 [Compound 16d, (E)-1-(4-(3-Chloro-7-methoxyfuro[2,3-b]quinolin-4-ylamino)phenyl)ethanone O-3-(dimethylamino) propyl oxime] | – | – | – | – | – | – | – | – | – | – | – | – | Cell growth (%) SF-268 ([2]; 4 (unit uncertain)): 103%; Cell growth (%) SF-268 ([2]; 20 (unit uncertain)): 1%; Cell growth (%) MCF-7 ([3]; 4 (unit uncertain)): 66%; Cell growth (%) MCF-7 ([3]; 20 (unit uncertain)): 1%; Cell growth (%) NCI-H460 ([4]; 4 (unit uncertain)): 66%; Cell growth (%) NCI-H460 ([4]; 20 (unit uncertain)): 4%
COc1ccc2c(Nc3ccc(/C(C)=N/OCCN)cc3)c3ccoc3nc2c1 [Compound 15a, (E)-1-(4-(7-Methoxyfuro[2,3-b]quinolin-4-ylamino)phenyl)ethanone O-2-aminoethyl oxime] | 45.11 ± 0.31 µM | 5.53 | 8.15 ± 0.44 µM | 1.24 | 71% | 8% | 36.23 ± 0.05 µM | 11.39 | 14% | 11% | 3.96 ± 0.14 µM | 16 µg/mL (≈ 41 µM) | –
COc1cccc2c1C(=O)c1c(O)c3c(c(O)c1C2=O)C[C@@](O)(C(C)=O)C[C@@H]3O[C@H]1C[C@H](N)[C@H](O)[C@H](C)O1 [daunorubicin, reference compound] | – | 1.47 | – | 0.17 | – | – | – | 2.32 | – | – | – | – | GI50 ([1]; MRC5, read-out: GI50 MRC-5): 0.88 ± 0.11 µM; GI50 ([2]; SF-268, read-out: GI50 SF-268): 0.6 ± 0.02 µM; GI50 ([3]; MCF7, read-out: GI50 MCF-7): 5.03 ± 0.05 µM; GI50 ([4]; NCI-H460, read-out: GI50 NCI-H460): 0.38 ± 0.04 µM
C/C(=N\OCCCN)c1ccc(Nc2c3ccccc3nc3occc23)cc1 [Compound 13c, (E)-1-(4-(furo[2,3-b]quinolin-4-ylamino)phenyl)ethanone O-3-aminopropyl oxime] | 43 ± 0.86 µM | 5.71 | 7.53 ± 0.41 µM | 3.73 | 52% | -3% | 11.52 ± 0.02 µM | 6.07 | 22% | -2% | 7.08 ± 0.67 µM | 58 µg/mL (≈ 155 µM) | –
